Assay results as given in US11464770B2, “Anticancer pharmaceutical composition” (NATIONAL CANCER CENTER, priority 2016, dated 2022).
Like-named read-outs stand apart in the source and are kept apart here.

Assays:
[1] = system: lung cancer cell lines (e.g. NCI-H23, NCI-H1229); assay: Cell based assay, cell viability (CellTiter-Glo), lung cancer cell lines; conditions: Homo sapiens
Description: (§1) Commercially available bladder cancer, prostate cancer, lung cancer, breast cancer, blood cancer, pancreatic cancer, colorectal cancer, brain cancer, neuroblastoma, melanoma, liver cancer, cervical carcinoma, ovarian cancer, renal cancer, and papilloma cell lines were each treated with trypsin-EDTA and cultured, followed by being seeded in each well of a 96 well plate. After 24 hours of treatment at constant temperature, the respective cells were treated with the candidate compound so that a final concentration became 0 to 2 μM. The treated cells were additionally cultured for 72 hours, and cell viability was measured by using an ATP detection method (CellTiter-Glo® Luminescent Cell Viability Assay, Promega).

[2] = system: brain cancer cell lines; assay: Cell based assay, cell viability (CellTiter-Glo), brain cancer cell lines; conditions: Homo sapiens
Description: as §1, with “After 24 hours of treatment at constant temperature, the respective cells were treated with the candidate compound so that a final concentration became 0 to 2 μM.” left out

[3] = system: renal cancer cell lines; assay: Cell based assay, cell viability (CellTiter-Glo), renal cancer cell lines; conditions: Homo sapiens; ACHN cells
Description: as §1

[4] = A549 cells, 72 hours treatment, CellTiter-Glo, read-out: IC50, lung cancer cell line A549
[5] = DMS 114 cells, 72 hours treatment, CellTiter-Glo, read-out: IC50, lung cancer cell line DMS 114
[6] = MRC-5 cells, 72 hours treatment, CellTiter-Glo, read-out: IC50
[7] = NCI-H23 cells, 72 hours treatment, CellTiter-Glo, read-out: IC50, lung cancer cell line NCI-H23
[8] = NCI-H460 cells, 72 hours treatment, CellTiter-Glo, read-out: IC50, lung cancer cell line NCI-H460
[9] = NCI-H522 cells, 72 hours treatment, CellTiter-Glo, read-out: IC50, lung cancer cell line NCI-H522
[10] = NCI-H1299 cells, 72 hours treatment, CellTiter-Glo, read-out: IC50, lung cancer cell line NCI-H1299
[11] = NCI-H1437 cells, 72 hours treatment, CellTiter-Glo, read-out: IC50, lung cancer cell line NCI-H1437
[12] = U138-MG, U-138 MG cell line, read-out: IC50, Brain cancer cell line U-138 MG
[13] = T98G cell line, read-out: IC50, Brain cancer cell line T98G
[14] = U-251 MG cell line, read-out: IC50, Brain cancer cell line U-251 MG
[15] = Lung cancer cell line A549, 72 hours, cell viability (CellTiter-Glo), read-out: IC50, A549
[16] = Lung cancer cell line DMS 114, 72 hours, cell viability (CellTiter-Glo), read-out: IC50, DMS 114
[17] = Lung cancer cell line NCI-H23, 72 hours, cell viability (CellTiter-Glo), read-out: IC50, NCI-H23
[18] = Lung cancer cell line NCI-H460, 72 hours, cell viability (CellTiter-Glo), read-out: IC50, NCI-H460
[19] = Lung cancer cell line NCI-H522, 72 hours, cell viability (CellTiter-Glo), read-out: IC50, NCI-H522
[20] = Lung cancer cell line NCI-H1299, 72 hours, cell viability (CellTiter-Glo), read-out: IC50, NCI-H1299
[21] = Lung cancer cell line NCI-H1437, 72 hours, cell viability (CellTiter-Glo), read-out: IC50, NCI-H1437
[22] = MRC-5 (listed under Lung cancer cell line), 72 hours, cell viability (CellTiter-Glo), read-out: IC50, MRC-5

Measured: IC50

CC(=O)c1c(SCc2ccccc2)n(C(=O)c2ccc(Br)cc2)c2c(Br)ccc(Cl)c2c1=O [Compound 23, 3-acetyl-2-(benzylthio)-8-bromo-1-(4-bromobenzoyl)-5-chloroquinolin-4(1H)-one]
> 10 µM: [1]; [11] | [2]; [12] | [2]; [13]
> 2 µM: [1]; [4] | [1]; [5] | [1]; [6] | [1]; [7] | [1]; [8] | [1]; [9] | [1]; [10] | [2]; [14] | [3]

CC(=O)c1c(SCc2cc(F)cc(F)c2)[nH]c2c(Br)ccc(Cl)c2c1=O [Compound 45, 3-acetyl-8-bromo-5-chloro-2-((3,5-difluorobenzyl)thio)quinolin-4(1H)-one]
> 2 µM: [1]; [4] | [1]; [5] | [1]; [6] | [1]; [7] | [1]; [8] | [1]; [9] | [1]; [10] | [2]; [14] | [3]
> 10 µM: [1]; [11] | [2]; [12] | [2]; [13]

COCCNc1ccc(C[S+]([O-])c2[nH]c3c(Br)ccc(Cl)c3c(=O)c2C(C)=O)cn1 (stereo not drawn) [Compound 105, 3-acetyl-8-bromo-5-chloro-2-(((6-((2-methoxyethyl)amino)pyridin-3-yl)methyl)sulfinyl)quinolin-4(1H)-one]
> 2 µM: [1]; [15] | [1]; [16] | [1]; [17] | [1]; [18] | [1]; [19] | [1]; [20] | [1]; [22] | [2]; [14] | [3]
> 10 µM: [1]; [21] | [2]; [12] | [2]; [13]

CC(=O)c1c([S+]([O-])Cc2cnc3[nH]ccc3c2)[nH]c2c(Br)ccc(Cl)c2c1=O (stereo not drawn) [Compound 107, 2-(((1H-pyrrolo[2,3-b]pyridin-5-yl)methyl)sulfinyl)-3-acetyl-8-bromo-5-chloroquinolin-4(1H)-one]
> 10 µM: [1]; [21] | [2]; [12] | [2]; [13]
> 2 µM: [1]; [15] | [1]; [16] | [1]; [17] | [1]; [18] | [1]; [19] | [1]; [20] | [1]; [22] | [2]; [14] | [3]

CC(=O)c1c(Sc2ccc(Br)cc2)[nH]c2c(Br)ccc(Cl)c2c1=O [Compound 16, 3-acetyl-8-bromo-2-((4-bromophenyl)thio)-5-chloroquinolin-4(1H)-one]
> 2 µM: [1]; [4] | [1]; [5] | [1]; [6] | [1]; [7] | [1]; [8] | [1]; [9] | [1]; [10] | [2]; [14] | [3]
> 10 µM: [1]; [11] | [2]; [12] | [2]; [13]

COc1cccc2[nH]c(SCc3ccc(S(F)(F)(F)(F)F)cc3)c(C(C)=O)c(=O)c12 [Compound 92, 3-acetyl-5-methoxy-2-((4-(pentafluoro--sulfanyl)benzyl)thio)quinolin-4(1H)-one]
> 10 µM: [1]; [11] | [2]; [12] | [2]; [13]
> 2 µM: [1]; [4] | [1]; [5] | [1]; [6] | [1]; [7] | [1]; [8] | [1]; [9] | [1]; [10] | [2]; [14] | [3]

CC(=O)c1c(SCc2cccc(F)c2)[nH]c2c(Br)ccc(Cl)c2c1=O [Compound 49, 3-acetyl-8-bromo-5-chloro-2-((3-fluorobenzyl)thio)quinolin-4(1H)-one]
> 2 µM: [1]; [4] | [1]; [5] | [1]; [6] | [1]; [7] | [1]; [8] | [1]; [9] | [1]; [10] | [2]; [14] | [3]
> 10 µM: [1]; [11] | [2]; [12] | [2]; [13]

CC(=O)c1c([S+]([O-])Cc2ccc(S(F)(F)(F)(F)F)cc2)[nH]c2c(F)ccc(F)c2c1=O (stereo not drawn) [Compound 80, 3-acetyl-5,8-difluoro-2-((4-(pentafluoro--sulfanyl)benzyl)sulfinyl)quinolin-4(1H)-one]
> 2 µM: [1]; [4] | [1]; [5] | [1]; [6] | [1]; [7] | [1]; [8] | [1]; [9] | [1]; [10] | [2]; [14] | [3]
> 10 µM: [1]; [11] | [2]; [12] | [2]; [13]

CC(=O)c1c(SC(C)C)[nH]c2c(Br)ccc(Cl)c2c1=O [Compound 24, 3-acetyl-8-bromo-5-chloro-2-(isopropylthio)quinolin-4(1H)-one]
> 10 µM: [1]; [11] | [2]; [12] | [2]; [13]
> 2 µM: [1]; [4] | [1]; [5] | [1]; [6] | [1]; [7] | [1]; [8] | [1]; [9] | [1]; [10] | [2]; [14] | [3]
